Assay results: patent EP3546478A1, “NEW PEPTIDE DERIVATIVES OF PLATELET DERIVED GROWTH FACTOR (PDGF), A METHOD FOR THEIR PREPARATION, PHARMACEUTICAL COMPOSITIONS CONTAINING THEM AND APPLICATION OF THESE COMPOSITIONS” (Uniwersytet Gdanski, priority 2018, dated 2019)
Positions of bridges follow the written chain, without caps; N, C: chain ends. Residues, ends and D or L forms follow the SMILES beside them. Chains are numbered I, II in the order given. No end group written: not given here.

Legend:
primary skin fibroblasts = assay: XTT proliferation test; format: cell-based, human
Procedure: (§1) The effect of PDGF derivatives (PDGF1, […]1, PDGF2, PGDF3, PDGF2_NE, PDGF2-HTT) on the proliferation of immortalized human 46BR.1N skin fibroblast cells, HaCaT skin keratinocytes (for each peptide 4 experimental cycles for HaCaT and 46BR.1N cells) and primary skin fibroblasts (for each peptide 4 experimental cycles, usingcells isolated from 4 patients) was investigated. Their cytotoxicity to these cells was also checked. The cells were incubated with peptides previously dissolved in double-distilled, sterile water. Proliferation tests (XTT test) were performed at the following concentrations: 0.01, 0.1, 1, 10, 25, 50, 100 and 150 μg / ml. Cytotoxicity tests (LDH) were performed at concentrations of 50, 100 and 150 μg / ml.

46BR.1N fibroblasts = format: cell-based, human; conditions: 0.1, 1 and 10 µg / ml after 48h and 72h
Procedure: as §1

HaCaT keratinocytes = format: cell-based, human
Procedure: as §1

[1] = tested on: human primary dermal fibroblasts; assay: Chemotaxis through culture inserts, calcein fluorometry; format: cell-based; conditions: 1 µg / ml, 24 hours of incubation
Procedure: The effect of the compound PDGF2 compound at a concentration of 1 µg / ml on the chemotaxis of HaCaT keratinocytes, and the effect of PDGF2 and PDGF3 at a concentration of 1 µg / ml on the chemotaxis of primary fibroblasts, were investigated. Cells were "starved" in serum-free medium for 24 hours before the experiment. They were then seeded in serum-free medium in culture inserts (Grainer bio one, 8 µm) placed in a 24-well plate. Serum-free medium containing PDGF2 or PDGF3 was added to the wells. Controls in the test were: serum free medium and medium containing 10% FBS. After 24 hours of incubation, the cells were stained with calcein. Cells that migrated through the insert membrane were then detached with trypsin and a fluorometric measurement was performed (excitation wavelength 485, emission wavelength 520 nm).

dendritic cells = format: cell-based, human
Procedure: Tests were conducted on human peripheral blood mononuclear cells (PBMC), isolated from "buffy coats" using a ficoll density gradient (histopaque, Sigma). Following two wash steps (in PBS), erythrocyte lysis and cell counting (cell counter, Bio-Rad), the PBMCs were seeded onto a 24-well culture plate at a density of 1 mln cells/1 ml of RPMI 1640 (P/S, 10% FBS)/well. Thecells were then allowed to adapt to the culture conditions for the next 24h. After cell resting, PDGF2 was added to the wells in a final concentration of 1.0 µg/ml, and the cells were incubated for the next 48h under appropriate conditions (37°C, 5% CO2). The untreated cells constituted a negative control, whereas cells stimulated with LPS (1 µg/ml) and PHA (2,5 µg/ml) were a positive control. After incubation, the PBMCs were collected, washed with PBS, counted and prepared for flow cytometry analysis under the following conditions: 10^4 cells/ 100µl were stained with monoclonal, fluorochrome-stained antibodies (anti-CD3, CD4, CD8, CD16, CD56, CD25, CD69, CD71, HLA-DR, CD11c, CD80, CD83). Following 30 min of incubation at RT in the dark, the cells were analyzed using a flow cytometer (LSRFortessa, BD).
An analysis of peptide impact on the activity of immune cells was performed on human PBMCs. These cells were incubated with PDGF2 (1.0 ug/ml) for 48h and the effects of stimulation were evaluated by flow cytometry. […]

[2] = XTT test, 0.01 to 150 µg / ml tested, result in words

| activation of dendritic cells (CD80, CD83) (dendritic cells) | Compound | increase in proliferation relative to control (primary skin fibroblasts; 1, 10, 25 and 50 µg / ml after 48h and 72h) | inhibition of proliferation (primary skin fibroblasts; [2]) | increase in proliferation relative to control (46BR.1N fibroblasts) | increase in proliferation relative to control (HaCaT keratinocytes; 0.1, 1, 10 and 25 µg / ml after 48h, 0.1, 1, 10, 25, 50, 100 and 150 µg / ml after 72h) | inhibition of proliferation (HaCaT keratinocytes; [2]) | effect on chemotaxis [1] |
| --- | --- | --- | --- | --- | --- | --- | --- |
|  | CC[C@H](C)[C@H](NC(=O)[C@H](CC(C)C)NC(=O)[C@@H](N)CCCNC(=N)N)C(=O)N[C@@H](CC(=O)O)C(=O)N[C@@H](CCCNC(=N)N)C(=O)N[C@H](C(=O)N[C@@H](CC(N)=O)C(=O)N[C@@H](C)C(=O)N[C@@H](CC(N)=O)C(=O)N[C@@H](Cc1ccccc1)C(=O)N[C@@H](CC(C)C)C(=O)NCCCC[C@H](NC(=O)[C@H](CCCNC(=N)N)NC(C)=O)C(=O)N[C@H](C(=O)N[C@@H](CCC(=O)O)C(=O)N[C@H](C(=O)N[C@H](C(=O)N[C@@H](CCCNC(=N)N)C(=O)N[C@@H](CCCCN)C(=O)N[C@@H](CCCCN)C(=O)N1CCC[C@H]1C(=O)N[C@H](C(=O)N[C@@H](Cc1ccccc1)C(N)=O)[C@@H](C)CC)C(C)C)[C@@H](C)CC)[C@@H](C)CC)[C@@H](C)O [PDGF3] (I: Ac-RKIEIVRKKPIF-NH2 / II: H-RLIDRTNANFL; amide I:2-II:C) | 10-60% | does not inhibit the proliferation | 20-40% | 20-120% | does not inhibit the proliferation | inhibit the chemotaxis |
| not activated | RLIDRTNANFL-NH2 [PDGF2, R^1L^2I^3D^4R^5T^6N^7A^8N^9F^10L^11-NH2] |  |  |  |  |  |  |
